# Source: patent US20200024278A1, “COMPOSITION COMPRISING ANTIBIOTIC COMPOUND AND AN HETEROCYCLIC COMPOUND AND THEIR USE IN PREVENTING OR TREATING BACTERIAL INFECTIONS” (MUTABILIS, priority 2016, published 2020)
# Read-outs that look alike come from different tables or passages of the source.
# Legend:
# Assay in all cases: MIC, broth microdilution (CLSI), substance alone or ATB combined with compound at 4 or 8 μg/mL
# KPN BAA-1898 = type: cell-based, K. pneumoniae; conditions: for MIC: Klebsiella pneumoniae, BAA1898
# Summary of the method: (§1)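 Each strain received 5·10^5 CFU/mL of log-phase cells in ca-MHB over DMSO-spotted compound or compound-antibiotic combinations. After 16-20 h at 35° C, growth was scored visually.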
# KPN 6299 = type: cell-based, K. pneumoniae; conditions: for MIC: Klebsiella pneumoniae
# Summary of the method: as §1
# KPN UFR42 = type: cell-based, K. pneumoniae; conditions: for MIC: Klebsiella pneumoniae
# Summary of the method: as §1
# SAU 29213 = type: cell-based, S. aureus; conditions: SAU 29213
# Summary of the method: as §1
# ECO 190317 = type: cell-based, E. coli; conditions: for MIC: Escherichia coli
# Summary of the method: as §1
# ECO UFR39 = type: cell-based, E. coli; conditions: ECO UFR39
# Summary of the method: as §1
smiles,measurement,setting,value
"C=CC1=C(C(=O)O)N2C(=O)[C@@H](NC(=O)/C(=N\OCC(=O)O)c3csc(N)n3)[C@H]2SC1 [FIX, Cefixime, reference compound]",MIC ATB combined with Example 1 @8 μg/ml,"KPN BAA-1898; KPN BAA-1898, with Example 1 @8 μg/ml",0.25 mg/L
same,MIC ATB combined with Example 1 @8 μg/ml,"KPN BAA-1898; KPN BAA-1898, with Example 1 at 8 μg/ml",0.25 mg/L
same,MIC ATB combined with Example 7 @8 μgml,"KPN BAA-1898; KPN BAA-1898, with Example 7 at 8 μg/ml",0.25 mg/L
same,MIC ATB combined with Example 9 @4 μg/ml,"KPN BAA-1898; KPN BAA-1898, with Example 9 @4 μg/ml",<0.031 mg/L
same,MIC ATB combined with Example 9 @4 μg/ml,"KPN BAA-1898; KPN BAA-1898, with Example 9 at 4 μg/ml",<0.031 mg/L
same,MIC ATB combined with Example 11 @8 μg/ml,"KPN BAA-1898; KPN BAA-1898, with Example 11 at 8 μg/ml",<0.031 mg/L
same,MIC ATB combined with Example 12 @8 μg/ml,"KPN BAA-1898; KPN BAA-1898, with Example 12 at 8 μg/ml",<0.031 mg/L
same,MIC ATB combined with Example 13 @8 μg/ml,"KPN BAA-1898; KPN BAA-1898, with Example 13 at 8 μg/ml",0.5 mg/L
same,MIC ATB combined with Example 14 @8 μg/ml,"KPN BAA-1898; KPN BAA-1898, with Example 14 at 8 μg/ml",<0.031 mg/L
same,MIC ATB combined with Example 15 @4 μgml,"KPN BAA-1898; KPN BAA-1898, with Example 15 at 4 μg/ml",<0.031 mg/L
same,MIC ATB combined with Example 16 @4 μg/ml,"KPN BAA-1898; KPN BAA-1898, with Example 16 at 4 μg/ml",<0.031 mg/L
same,MIC,KPN BAA-1898,> 128 mg/L
same,MIC,"KPN BAA-1898; KPN BAA-1898, antibiotic alone, read-out: MIC ATB alone",> 512 mg/L
same,MIC,"KPN 6299; antibiotic alone, read-out: MIC ATB alone",16 mg/L
same,MIC,"KPN 6299; substance alone, read-out: MIC",16 mg/L
same,MIC ATB combined with Example 1 @8 μg/ml,KPN 6299; with Example 1 @8 μg/ml,0.063 mg/L
same,MIC ATB combined with Example 1 @8 μg/ml,KPN 6299; with Example 1 at 8 μg/ml,0.063 mg/L
same,MIC ATB combined with Example 7 @8 μgml,KPN 6299; with Example 7 at 8 μg/ml,0.063 mg/L
same,MIC ATB combined with Example 9 @4 μg/ml,KPN 6299; with Example 9 @4 μg/ml,<=0.031 μg/mL
same,MIC ATB combined with Example 9 @4 μg/ml,KPN 6299; with Example 9 at 4 μg/ml,<=0.031 μg/mL
same,MIC ATB combined with Example 11 @8 μg/ml,KPN 6299; with Example 11 at 8 μg/ml,<0.031 mg/L
same,MIC ATB combined with Example 12 @8 μg/ml,KPN 6299; with Example 12 at 8 μg/ml,<0.031 mg/L
same,MIC ATB combined with Example 13 @8 μg/ml,KPN 6299; with Example 13 at 8 μg/ml,<=0.031 μg/mL
same,MIC ATB combined with Example 14 @8 μg/ml,KPN 6299; with Example 14 at 8 μg/ml,<0.031 mg/L
same,MIC ATB combined with Example 15 @4 μgml,KPN 6299; with Example 15 at 4 μg/ml,<0.031 mg/L
same,MIC ATB combined with Example 16 @4 μg/ml,KPN 6299; with Example 16 at 4 μg/ml,<0.031 mg/L
same,MIC ATB combined with Example 1 @8 μg/ml,"KPN UFR42; KPN UFR42, with Example 1 @8 μg/ml",>32 mg/L
same,MIC ATB combined with Example 1 @8 μg/ml,"KPN UFR42; KPN UFR42, with Example 1 at 8 μg/ml",>32 mg/L
same,MIC ATB combined with Example 7 @8 μgml,"KPN UFR42; KPN UFR42, with Example 7 at 8 μg/ml",>32 mg/L
same,MIC ATB combined with Example 9 @4 μg/ml,"KPN UFR42; KPN UFR42, with Example 9 @4 μg/ml",>32 mg/L
same,MIC ATB combined with Example 9 @4 μg/ml,"KPN UFR42; KPN UFR42, with Example 9 at 4 μg/ml",>32 mg/L
same,MIC ATB combined with Example 11 @8 μg/ml,"KPN UFR42; KPN UFR42, with Example 11 at 8 μg/ml",<0.031 mg/L
same,MIC ATB combined with Example 12 @8 μg/ml,"KPN UFR42; KPN UFR42, with Example 12 at 8 μg/ml",<0.031 mg/L
same,MIC ATB combined with Example 13 @8 μg/ml,"KPN UFR42; KPN UFR42, with Example 13 at 8 μg/ml",>32 mg/L
same,MIC ATB combined with Example 14 @8 μg/ml,"KPN UFR42; KPN UFR42, with Example 14 at 8 μg/ml",<0.031 mg/L
same,MIC ATB combined with Example 15 @4 μgml,"KPN UFR42; KPN UFR42, with Example 15 at 4 μg/ml",<0.031 mg/L
same,MIC ATB combined with Example 16 @4 μg/ml,"KPN UFR42; KPN UFR42, with Example 16 at 4 μg/ml",<0.031 mg/L
same,MIC,KPN UFR42,> 128 mg/L
same,MIC,"KPN UFR42; KPN UFR42, antibiotic alone, read-out: MIC ATB alone",> 256 mg/L
same,MIC ATB combined with Example 1 @8 μg/ml,SAU 29213; with Example 1 @8 μg/ml,16 mg/L
same,MIC ATB combined with Example 1 @8 μg/ml,SAU 29213; with Example 1 at 8 μg/ml,16 mg/L
same,MIC ATB combined with Example 7 @8 μgml,SAU 29213; with Example 7 at 8 μg/ml,8 mg/L
same,MIC ATB combined with Example 9 @4 μg/ml,SAU 29213; with Example 9 @4 μg/ml,<=0.031 μg/mL
same,MIC ATB combined with Example 9 @4 μg/ml,SAU 29213; with Example 9 at 4 μg/ml,<=0.031 μg/mL
same,MIC ATB combined with Example 11 @8 μg/ml,SAU 29213; with Example 11 at 8 μg/ml,0.125 mg/L
same,MIC ATB combined with Example 12 @8 μg/ml,SAU 29213; with Example 12 at 8 μg/ml,<0.031 mg/L
same,MIC ATB combined with Example 13 @8 μg/ml,SAU 29213; with Example 13 at 8 μg/ml,4 mg/L
same,MIC ATB combined with Example 14 @8 μg/ml,SAU 29213; with Example 14 at 8 μg/ml,<0.031 mg/L
same,MIC ATB combined with Example 15 @4 μgml,SAU 29213; with Example 15 at 4 μg/ml,<0.031 mg/L
same,MIC ATB combined with Example 16 @4 μg/ml,SAU 29213; with Example 16 at 4 μg/ml,<0.031 mg/L
same,MIC,"SAU 29213; Staphylococcus aureus, antibiotic alone, read-out: MIC ATB alone",16 mg/L
same,MIC ATB combined with Example 1 @8 μg/ml,"ECO 190317; ECO 190317, with Example 1 @8 μg/ml",<0.031 mg/L
same,MIC ATB combined with Example 1 @8 μg/ml,"ECO 190317; ECO 190317, with Example 1 at 8 μg/ml",<0.031 mg/L
same,MIC ATB combined with Example 7 @8 μgml,"ECO 190317; ECO 190317, with Example 7 at 8 μg/ml",<0.031 mg/L
same,MIC ATB combined with Example 9 @4 μg/ml,"ECO 190317; ECO 190317, with Example 9 @4 μg/ml",<0.031 mg/L
same,MIC ATB combined with Example 9 @4 μg/ml,"ECO 190317; ECO 190317, with Example 9 at 4 μg/ml",<0.031 mg/L
same,MIC ATB combined with Example 11 @8 μg/ml,"ECO 190317; ECO 190317, with Example 11 at 8 μg/ml",<0.031 mg/L
same,MIC ATB combined with Example 12 @8 μg/ml,"ECO 190317; ECO 190317, with Example 12 at 8 μg/ml",<0.031 mg/L
same,MIC ATB combined with Example 13 @8 μg/ml,"ECO 190317; ECO 190317, with Example 13 at 8 μg/ml",<0.031 mg/L
same,MIC ATB combined with Example 14 @8 μg/ml,"ECO 190317; ECO 190317, with Example 14 at 8 μg/ml",<0.031 mg/L
same,MIC ATB combined with Example 15 @4 μgml,"ECO 190317; ECO 190317, with Example 15 at 4 μg/ml",<0.031 mg/L
same,MIC ATB combined with Example 16 @4 μg/ml,"ECO 190317; ECO 190317, with Example 16 at 4 μg/ml",<0.031 mg/L
same,MIC,ECO 190317,> 128 mg/L
same,MIC,"ECO 190317; ECO 190317, antibiotic alone, read-out: MIC ATB alone",256 mg/L
same,MIC ATB combined with Example 1 @8 μg/ml,ECO UFR39; with Example 1 @8 μg/ml,>32 mg/L
same,MIC ATB combined with Example 1 @8 μg/ml,ECO UFR39; with Example 1 at 8 μg/ml,>32 mg/L
same,MIC ATB combined with Example 7 @8 μgml,ECO UFR39; with Example 7 at 8 μg/ml,<0.031 mg/L
same,MIC ATB combined with Example 9 @4 μg/ml,ECO UFR39; with Example 9 @4 μg/ml,<0.031 mg/L
same,MIC ATB combined with Example 9 @4 μg/ml,ECO UFR39; with Example 9 at 4 μg/ml,<0.031 mg/L
